Data from publication PMC10648927, “Examining the activity of cefepime-taniborbactam against Burkholderia cepacia complex and Burkholderia gladioli isolated from cystic fibrosis patients in the United States” (Antimicrobial Agents and Chemotherapy, 2023).
≈ marks a conversion by molar mass, not a printed value.

Assays:
Design in all cases: agar dilution MIC, growth inhibition of clinical Burkholderia isolates
B. ambifaria AU19862 = system: T1, B. ambifaria AU19862; assay: microbe, parasite or virus in culture; settings: Burkholderia ambifaria, AU19862
T1 construct: AU19862
Outline: (§1)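 MICs by agar dilution against Bcc and B. gladioli clinical isolates, interpreted with CLSI breakpoints where available; K. pneumoniae ATCC 700603 (SHV-18) and ATCC BAA-1705 (KPC) served as quality controls.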

B. cenocepacia AU10321 = system: T2, B. cenocepacia AU10321; assay: microbe, parasite or virus in culture; settings: Burkholderia cenocepacia, AU10321
T2 construct: AU10321
Outline: as §1

B. cenocepacia AU19276 = system: T3, B. cenocepacia AU19276; assay: microbe, parasite or virus in culture; settings: Burkholderia cenocepacia, AU19276
T3 construct: AU19276
Outline: as §1

B. cenocepacia AU24362 = system: T4, B. cenocepacia AU24362; assay: microbe, parasite or virus in culture; settings: Burkholderia cenocepacia, AU24362
T4 construct: AU24362
Outline: as §1

B. cenocepacia AU3663 = system: T5, B. cenocepacia AU3663; assay: microbe, parasite or virus in culture; settings: Burkholderia cenocepacia, AU3663
T5 construct: AU3663
Outline: as §1

B. cepacia AU0108 = system: T6, B. cepacia AU0108; assay: microbe, parasite or virus in culture; settings: Burkholderia cepacia, AU0108
T6 construct: AU0108
Outline: as §1

B. contaminans AU17641 = system: T7, B. contaminans AU17641; assay: organism not typed
T7 construct: AU17641
Outline: as §1

B. dolosa AU12872 = system: T8, B. dolosa AU12872; assay: microbe, parasite or virus in culture; settings: Burkholderia dolosa, AU12872
T8 construct: AU12872
Outline: as §1

B. gladioli AU1009 = system: T9, B. gladioli AU1009; assay: organism not typed
T9 construct: AU1009
Outline: as §1

B. gladioli AU26456 = system: T10, B. gladioli AU26456; assay: organism not typed
T10 construct: AU26456
Outline: as §1

B. gladioli AU29223 = system: T11, B. gladioli AU29223; assay: organism not typed
T11 construct: AU29223
Outline: as §1

B. multivorans AU12481 = system: T12, B. multivorans AU12481; assay: microbe, parasite or virus in culture; settings: Burkholderia multivorans, AU12481
T12 construct: AU12481
Outline: as §1

B. multivorans AU19518 = system: T13, B. multivorans AU19518; assay: microbe, parasite or virus in culture; settings: Burkholderia multivorans, AU19518
T13 construct: AU19518
Outline: as §1

B. multivorans AU21596 = system: T14, B. multivorans AU21596; assay: microbe, parasite or virus in culture; settings: Burkholderia multivorans, AU21596
T14 construct: AU21596
Outline: as §1

B. multivorans AU23365 = system: T15, B. multivorans AU23365; assay: microbe, parasite or virus in culture; settings: Burkholderia multivorans, AU23365
T15 construct: AU23365
Outline: as §1

B. multivorans AU23668 = system: T16, B. multivorans AU23668; assay: microbe, parasite or virus in culture; settings: Burkholderia multivorans, AU23668
T16 construct: AU23668
Outline: as §1

B. multivorans AU30760 = system: T17, B. multivorans AU30760; assay: microbe, parasite or virus in culture; settings: Burkholderia multivorans, AU30760
T17 construct: AU30760
Outline: as §1

B. stabilis AU10235 = system: T18, B. stabilis AU10235; assay: microbe, parasite or virus in culture; settings: Burkholderia stabilis, AU10235
T18 construct: AU10235
Outline: as §1

B. stabilis AU9035 = system: T19, B. stabilis AU9035; assay: microbe, parasite or virus in culture; settings: Burkholderia stabilis, AU9035
T19 construct: AU9035
Outline: as §1

B. vietnamiensis AU3578 = system: T20, B. vietnamiensis AU3578; assay: microbe, parasite or virus in culture; settings: Burkholderia vietnamiensis, AU3578
T20 construct: AU3578
Outline: as §1

B. vietnamiensis AU5003 = system: T21, B. vietnamiensis AU5003; assay: microbe, parasite or virus in culture; settings: Burkholderia vietnamiensis, AU5003
T21 construct: AU5003
Outline: as §1

[1] = system: T22, Burkholderia cepacia complex Bcc Indeterminate AU19076; assay: microbe, parasite or virus in culture; settings: Burkholderia cepacia
T22 construct: AU19076
Outline: as §1

Structure (SMILES) | MIC (B. ambifaria AU19862) [µg/mL] | MIC (B. cenocepacia AU10321) [µg/mL] | MIC (B. cenocepacia AU19276) [µg/mL] | MIC (B. cenocepacia AU24362) [µg/mL] | MIC (B. cenocepacia AU3663) [µg/mL] | MIC (B. cepacia AU0108) [µg/mL] | MIC (B. contaminans AU17641) [µg/mL] | MIC (B. dolosa AU12872) [µg/mL] | MIC (B. gladioli AU1009) [µg/mL] | MIC (B. gladioli AU26456) [µg/mL] | MIC (B. gladioli AU29223) [µg/mL] | MIC (B. multivorans AU12481) [µg/mL] | MIC (B. multivorans AU19518) [µg/mL] | MIC (B. multivorans AU21596) [µg/mL] | MIC (B. multivorans AU23365) [µg/mL] | MIC (B. multivorans AU23668) [µg/mL] | MIC (B. multivorans AU30760) [µg/mL] | MIC (B. stabilis AU10235) [µg/mL] | MIC (B. stabilis AU9035) [µg/mL] | MIC (B. vietnamiensis AU3578) [µg/mL] | further results
C[C@H]1COc2c(N3CCN(C)CC3)c(F)cc3c(=O)c(C(=O)O)cn1c23 [levofloxacin] | 8 (≈ 22.1 µM) | > 32 | 0.5 (≈ 1.38 µM) | 8 (≈ 22.1 µM) | 16 (≈ 44.3 µM) | 2 (≈ 5.53 µM) | 4 (≈ 11.1 µM) | > 32 | 0.5 (≈ 1.38 µM) | 0.5 (≈ 1.38 µM) | 0.5 (≈ 1.38 µM) | 4 (≈ 11.1 µM) | 32 (≈ 88.6 µM) | > 32 | 8 (≈ 22.1 µM) | 2 (≈ 5.53 µM) | 2 (≈ 5.53 µM) | 16 (≈ 44.3 µM) | 16 (≈ 44.3 µM) | 8 (≈ 22.1 µM) | MIC (B. vietnamiensis AU5003): 8 µg/mL (≈ 22.1 µM); MIC [1]: 4 µg/mL (≈ 11.1 µM)
CO/N=C(\C(=O)N[C@@H]1C(=O)N2C(C(=O)[O-])=C(C[N+]3(C)CCCC3)CS[C@H]12)c1csc(N)n1 [cefepime] | 16 (≈ 33.3 µM) | > 32 | 8 (≈ 16.6 µM) | > 32 | 32 (≈ 66.6 µM) | 8 (≈ 16.6 µM) | 32 (≈ 66.6 µM) | > 32 | 16 (≈ 33.3 µM) | 4 (≈ 8.32 µM) | 16 (≈ 33.3 µM) | 2 (≈ 4.16 µM) | 32 (≈ 66.6 µM) | > 32 | > 32 | 4 (≈ 8.32 µM) | 8 (≈ 16.6 µM) | > 32 | 32 (≈ 66.6 µM) | > 32 | MIC (B. vietnamiensis AU5003): > 32 µg/mL; MIC [1]: 16 µg/mL (≈ 33.3 µM)
C[C@@H](O)[C@H]1C(=O)N2C(C(=O)O)=C(S[C@@H]3CN[C@H](C(=O)N(C)C)C3)[C@H](C)[C@H]12 [meropenem] | 2 (≈ 5.22 µM) | 16 (≈ 41.7 µM) | 2 (≈ 5.22 µM) | 16 (≈ 41.7 µM) | 4 (≈ 10.4 µM) | 4 (≈ 10.4 µM) | 4 (≈ 10.4 µM) | 32 (≈ 83.4 µM) | 1 (≈ 2.61 µM) | 1 (≈ 2.61 µM) | 1 (≈ 2.61 µM) | 2 (≈ 5.22 µM) | 16 (≈ 41.7 µM) | 32 (≈ 83.4 µM) | 8 (≈ 20.9 µM) | 2 (≈ 5.22 µM) | 2 (≈ 5.22 µM) | 16 (≈ 41.7 µM) | 8 (≈ 20.9 µM) | 4 (≈ 10.4 µM) | MIC (B. vietnamiensis AU5003): 4 µg/mL (≈ 10.4 µM); MIC [1]: 4 µg/mL (≈ 10.4 µM)
